Patent US20180008573A1, “METHODS AND COMPOSITIONS FOR REDUCING DAMAGE ASSOCIATED WITH OXIDATIVE PHOSPHORYLATION” (USANA Health Sciences, Inc., priority 2016, published 2018)

What was measured:
[1] = molecular target: T1, human PPARα (Homo sapiens, UniProt Q07869); assay: PPARα agonist reporter assay (Gal4 hybrid receptor, luciferase, CHO cells); assay type: cell-based
T1 construct: expressed in transfected cells; host or cells: CHO
T1 sequence (Q07869 239-466 limits assumed): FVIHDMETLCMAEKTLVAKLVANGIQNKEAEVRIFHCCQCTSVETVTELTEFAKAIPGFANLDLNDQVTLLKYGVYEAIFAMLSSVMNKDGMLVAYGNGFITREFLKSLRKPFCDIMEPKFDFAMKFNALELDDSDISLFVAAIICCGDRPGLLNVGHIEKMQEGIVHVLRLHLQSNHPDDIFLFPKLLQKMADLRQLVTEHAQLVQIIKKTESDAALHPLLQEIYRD

[2] = molecular target: T2, human PPARδ (Homo sapiens, UniProt Q03181); assay: PPARδ agonist reporter assay (Gal4 hybrid receptor, luciferase, CHO cells); assay type: cell-based
T2 construct: expressed in transfected cells; host or cells: CHO
T2 sequence (Q03181 211-439 limits assumed): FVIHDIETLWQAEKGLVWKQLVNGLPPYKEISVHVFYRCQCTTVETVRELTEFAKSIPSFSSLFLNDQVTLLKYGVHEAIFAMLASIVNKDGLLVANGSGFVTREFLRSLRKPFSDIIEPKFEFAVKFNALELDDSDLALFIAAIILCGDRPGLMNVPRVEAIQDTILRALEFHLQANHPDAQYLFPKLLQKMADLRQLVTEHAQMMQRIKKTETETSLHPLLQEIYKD

[3] = molecular target: T3, human PPARγ (Homo sapiens, UniProt P37231); assay: PPARγ agonist reporter assay (Gal4 hybrid receptor, luciferase, CHO cells); assay type: cell-based
T3 construct: expressed in transfected cells; host or cells: CHO
T3 sequence (P37231 238-503 limits assumed): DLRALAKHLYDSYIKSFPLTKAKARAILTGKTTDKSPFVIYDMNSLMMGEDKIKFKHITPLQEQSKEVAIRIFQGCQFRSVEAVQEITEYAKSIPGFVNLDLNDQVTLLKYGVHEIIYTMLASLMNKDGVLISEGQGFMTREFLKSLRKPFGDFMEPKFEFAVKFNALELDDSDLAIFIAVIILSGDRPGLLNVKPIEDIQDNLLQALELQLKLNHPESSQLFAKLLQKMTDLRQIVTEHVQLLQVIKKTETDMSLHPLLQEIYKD

[4] = test system: human NF-κB; assay: NF-κB antagonist reporter assay (NF-κB GRE-luciferase, HEK293 cells); assay type: cell-based;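 further: reporter cells carry native NF-κB receptor with firefly luciferase under upstream response elements, with a vehicle control included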
[5] = test system: NF-κB reporter cells; assay: Live cell multiplex assay in the NF-κB antagonist assay; assay type: cell-based, human
Description: A vehicle control was prepared.

[6] = molecular target: T4, Nrf2 (Homo sapiens, UniProt Q16236); assay: Nrf2 agonist reporter assay (native receptor, ARE-luciferase, CV1 cells); assay type: cell-based; set-up: comprising either the native receptor (Nrf2 and NF-κB); expressed in transfected cells; host or cells: CV1
T4 sequence (Q16236 1-605): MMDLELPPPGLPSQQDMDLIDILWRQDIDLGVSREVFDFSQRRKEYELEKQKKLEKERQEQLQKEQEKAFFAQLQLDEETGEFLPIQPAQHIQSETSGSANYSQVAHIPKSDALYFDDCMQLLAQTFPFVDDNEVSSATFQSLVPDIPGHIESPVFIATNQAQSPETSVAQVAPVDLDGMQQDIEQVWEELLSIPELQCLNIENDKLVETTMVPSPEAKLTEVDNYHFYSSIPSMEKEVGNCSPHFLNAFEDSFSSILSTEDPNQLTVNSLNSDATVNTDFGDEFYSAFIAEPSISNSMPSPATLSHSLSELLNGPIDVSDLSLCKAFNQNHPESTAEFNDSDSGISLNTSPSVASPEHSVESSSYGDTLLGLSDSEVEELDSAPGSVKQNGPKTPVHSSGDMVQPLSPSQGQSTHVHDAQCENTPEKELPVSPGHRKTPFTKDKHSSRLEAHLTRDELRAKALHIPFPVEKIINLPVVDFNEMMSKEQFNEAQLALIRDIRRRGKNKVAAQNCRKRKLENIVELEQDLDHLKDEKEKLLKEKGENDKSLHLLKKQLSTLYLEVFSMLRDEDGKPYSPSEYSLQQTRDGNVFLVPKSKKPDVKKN

## COc1ccc([C@@H]2CC(=O)c3c(O)cc(O)cc3O2)cc1O [Hesperetin, (S)-2,3-Dihydro-5,7-dihydroxy-2-(3-hydroxy-4-methoxyphenyl)-4H-1-benzopyran-4-one]
[1]; 0.043 μg/ml active ingredient
  PPARα Fold-Activation: 1.4 fold
[1]; 0.389 μg/ml active ingredient
  PPARα Fold-Activation: 1.2 fold
[1]; 1.167 μg/ml active ingredient
  PPARα Fold-Activation: 1.0 fold
[1]; 3.5 μg/ml active ingredient
  PPARα Fold-Activation: 0.79 fold
[2]; 0.043 μg/ml active ingredient
  PPARδ Fold-Activation: 1.1 fold
[2]; 0.389 μg/ml active ingredient
  PPARδ Fold-Activation: 1.0 fold
[2]; 1.167 μg/ml active ingredient
  PPARδ Fold-Activation: 1.1 fold
[2]; 3.5 μg/ml active ingredient
  PPARδ Fold-Activation: 0.89 fold
[3]; 0.043 μg/ml active ingredient
  PPARγ Fold-Activation: 1.0 fold
[3]; 0.389 μg/ml active ingredient
  PPARγ Fold-Activation: 1.1 fold
[3]; 1.167 μg/ml active ingredient
  PPARγ Fold-Activation: 1.1 fold
[3]; 3.5 μg/ml active ingredient
  PPARγ Fold-Activation: 0.55 fold
[4]; 0.043 μg/ml active ingredient
  NF-κB % Inhibition: −11%
[4]; 0.389 μg/ml active ingredient
  NF-κB % Inhibition: −2.1%
[4]; 1.167 μg/ml active ingredient
  NF-κB % Inhibition: 14%
[4]; 3.5 μg/ml active ingredient
  NF-κB % Inhibition: 39%
[5]; 0.043 μg/ml active ingredient
  NF-κB % Live Cell: 98%
[5]; 0.389 μg/ml active ingredient
  NF-κB % Live Cell: 99%
[5]; 1.167 μg/ml active ingredient
  NF-κB % Live Cell: 98%
[5]; 3.5 μg/ml active ingredient
  NF-κB % Live Cell: 96%
[6]; 0.043 μg/ml active ingredient
  Nrf2 Fold-Activation: 1.4 fold
[6]; 0.389 μg/ml active ingredient
  Nrf2 Fold-Activation: 1.3 fold
[6]; 1.167 μg/ml active ingredient
  Nrf2 Fold-Activation: 1.5 fold
[6]; 3.5 μg/ml active ingredient
  Nrf2 Fold-Activation: 0.94 fold
